Six molecules from patent US20060153897A1, “Zinc-containing foods” (priority 2001, published 2006) can be followed below.

Data set [1] deals with Salmonella typhimurium TA 100, TA 1535, TA 98 and TA 1537. Description: Mutagenicity test (Ames) using microorganisms. Type of data set: cell-based. The note with it: for mutation-inducing ability: Salmonella typhimurium TA 100, TA 1535, TA 98, TA 1537, compared with solvent control; for growth inhibition: high concentrations. The text has this:
(§1) As a mutagenicity test (Ames) using microorganisms, mutation-inducing ability of zinc complexes with maltol, picolinic acid, picolinamide, 6-methyl-picolinic acid, L-threonine and L-valine was examined using Salmonella typhimurium TA 100, TA 1535, TA 98 and TA 1537 and Escherichia coli WP 2 uvr A.

Another data set concerns female and male rats. Nature of the data set: Acute toxicity test. The format is in vivo. The note with it: female and male rats, 2, 8 and 15 days after administration of 2,000 mg/kg. On the procedure:
(§2) Outside the application of GLP, acute toxicity test was carried out for zinc complexes with maltol, picolinic acid, picolinamide, 6-methyl-picolinic acid, L-threonine and L-valine.

Data set [2] concerns Escherichia coli WP 2 uvr A. Description: Mutagenicity test (Ames) using microorganisms. Type of data set: cell-based. The note with it: compared with solvent control.
Description: as §1

Another data set in a line: Acute toxicity test. Type of data set: in vivo. The following applies: rat, in vivo. The protocol:
as §2

Setting [3] is: ligand per se, strain not stated.

For “bis(maltol)/zinc complex [zinc complex with maltol]”, in data set [1], the mutation-inducing ability entry is given as “very weakly positive”. Besides, in data set [1] (TA 1535 strain), the growth inhibition result is reported as “growth inhibition at high concentrations”.
With `CC(C)[C@H](N)C(=O)[O-].CC(C)[C@H](N)C(=O)[O-].[Zn+2]` [zinc complex with L-valine], the “change in normal state and autopsy compared with solvent control group” value (“change in normal state and autopsy” for short) in the data set with female and male rats is reported as “no special change”. For the same molecule, the mutation-inducing ability entry in data set [2] and in data set [1] was “no mutation-inducing ability” throughout.
On to `O=C([O-])c1ccccn1.O=C([O-])c1ccccn1.[Zn+2]` [zinc complex with picolinic acid], for which the “change in normal state and autopsy” value in the data set on female and male rats was “no special change”. Further, in data set [1], the mutation-inducing ability entry is “very weakly positive”. Further, the growth inhibition entry in data set [1] (TA 98, TA 1537 strains) is “growth inhibition at high concentrations”.
Take `Cc1cccc(C(=O)[O-])n1.Cc1cccc(C(=O)[O-])n1.[Zn+2]` [bis(6-methylpicolinic acid)/zinc complex]: in the data set with female and male rats, the “change in normal state and autopsy” value is given as “no special change”. The mutation-inducing ability result in data set [2] and in data set [1] was “no mutation-inducing ability” in each case.
`Cc1occc(=O)c1O` [maltol, reference compound]: the results for the LD50 at 15 days in “Acute toxicity test” (female) and in the data set “Acute toxicity test” (male) were 1590 mg/kg and 1680 mg/kg, respectively. Besides, in data set [1] (setting [3]), the growth inhibition entry is “growth inhibition at high concentrations”.
With `O=C(O)c1ccccn1` [picolinic acid, reference compound], the growth inhibition entry in data set [1] (setting [3]) is given as “growth inhibition at high concentrations”.

Broadly, the LD50 is the dose at which mortality reaches 50%.
